How the values were obtained:
Assay type in all cases: in vivo, rat
[1] = test system: tyrosine hydroxylase (TH); assay: Example 1: TH immunopositive neuron count in SNc after 6-OHDA lesion, GPE given 2 hours later; conditions: lesioned (right) side; 3 μg GPE via guide cannula 2 hours after 6-OHDA; 14 days; 3 levels of SNc; vs vehicle; FIG. 1
Procedure: This experiment was blind with respect to the treatment (with GPE or the vehicle) and with respect to the counting of neurons expressing TH (between sections from animals treated with GPE or vehicle).
(§1) The objective of this experiment was to determine the effects of administering GPE on the expression of tyrosine hydroxylase (TH) in the presence or absence of CNS injury. […] Specifically, 9 pairs of adult male Wistar rats (280-320 g) were prepared under 3% halothane/O2 anaesthesia. The oxygen free radical producing neurotoxin 6-hydroxydopamine (6-OHDA) which produces degeneration of dopamine neurones (8 μg/2 μl) was injected into the median forebrain bundle using a 30 gauge needle (coordinates: anterior-posterior +4.7 mm, right +1.6 mm, vertical −8.5 mm). A guide cannula was placed on the dura 7.5 mm anterior from stereotaxic zero and 1.5 mm from the midline on the right. The rats were left to recover at room temperature. 2 hours after the administration of 6-OHDA the rats were treated, via the guide cannula, with 3μg GPE or vehicle alone (15μl injected with a pump rate of 2 μl/minute, 0.1M acetate buffer [pH6], diluted 10 times in 0.1 bovine serum albumin in 0.1M phosphate buffered saline [PBS][pH7.31]). […]
(§2) The total counts of neurons were compared between the GPE and the vehicle treated group. Data were analysed with paired t-test and presented as mean±sem.

[2] = test system: tyrosine hydroxylase (TH); assay: Example 3: TH immunostaining density and TH positive neuron number in SNc after 6-OHDA lesion
Procedure: A paired experimental design was used and the experimenter was blinded to the treatment groups. Eighteen male Wistar rats (50-60 days old, 280-310 g) were used for this study. 6-hydroxy dopamine (6-OHDA) was prepared as 8 μg in a base of 2 μl 0.9% saline containing 1% ascorbic acid. It was administered into the right medial forebrain bundle (MFB) using coordinates of AP+4.7 mm, R 1.6 mm, V−8 mm under anaesthesia of 3% halothane. 6-OHDA was injected into the right MFB using a Hamilton syringe (100 μl with a 30G needle) controlled by a microdialysis infusion pump at an infusion rate of 0.2 μl/minute. The infusion needle was then slowly withdrawn 5 minutes after the infusion. […] Briefly, a guide cannula (21G, 6 mm) was fixed on the top of the dura with coordinates of AP+7.5 mm, R 1.5 mm immediately after the injection of 6-OHDA. Either GPE (3 μg/15 μl) or its vehicle were infused into the right lateral ventricle 2 hours later at an infusion rate of 2 μl/minute. Rats were then housed in a holding room with food and water ad libitum for the next 2 weeks.
The rats were then deeply anaesthetized with an overdose of pentobarbital and transcardially perfused with normal saline followed by 10% buffered formalin. The brains were removed from the skull and kept in the same fixative for the next 48 hours. A standard paraffin tissue preparation was used to process the tissue so that it could be used for immunohistochemistry. Coronal sections (8 μm) were cut using a microtome, and the sections were mounted on chrome alum coated microscopy slides and air-dried. SNc sections used for immunohistochemical staining were deparaffinized, rehydrated and washed in PBS (0.1M). The sections were then pretreated with 1% H2O2 for 20 minutes, washed with 0.1M PBS (3×5 minutes) and incubated with rabbit polyclonal antisera raised against tyrosine hydroxylase (Protos Biotech, USA) diluted 1:500 with 1% goat serum for 48 hours at 4° C. The sections were washed in PBS (3×5 minutes) and incubated with donkey anti-rabbit biotinylated secondary antibody (1:200, Amersham, Life Science) overnight at room temperature. The sections were washed, incubated in streptavidin-biotinylated horseradish peroxidase (1:200, Amersham, Life Science) for 3 hours, washed again in PBS and then reacted in 0.05% 3,3-diaminobenzidine tetrahydrochloride (DAB) and 0.01% H2O2 to produce a brown reaction product. The sections were dehydrated in a graded alcohol series, cleared in xylene and coverslipped with mounting medium.
The average density from the background was also measured. The analyst was blinded to the treatment and control groups. The difference in average density between the background and TH immunostaining was calculated and used for data analysis. […]

[3] = test system: tyrosine hydroxylase (TH); assay: Example 2: TH immunopositive neuron count in SNc after 6-OHDA lesion, second set of rats; conditions: 3 μg GPE 2 hours after 6-OHDA; 2 levels of SNc counted; vs vehicle; FIG. 2
Procedure: as §1, §2
Example 2 was performed using a second set of rats (9 pairs), using the same experimental parameters except that only the immunopositive neurons at 2 levels of the SNc were counted.

[4] = test system: tyrosine hydroxylase (TH); assay: Example 4: survival of TH immunopositive nigral neurons after medial forebrain bundle transection; conditions: lesioned side; daily supranigral GPE 0.3 μg/μl, 1 μl, for two weeks after MFB transection; ipsilateral/contralateral; FIG. 5
Procedure: Adult male Wistar rats (200-220 g) were anaesthetized with 75 mg/kg Nembutal and positioned in a stereotaxic apparatus. Unilateral transection of the medial forebrain bundle which contains the ascending nigral dopaminergic projection fibers was made 1.3 mm rostral to the rostral tip of the SNc using a retractable wire knife (David Kopf Instruments, Tujunga, Calif.). The knife was lowered into the brain using the following coordinates from the atlas of Paxinos and Watson (1986), Sydney: Academic Press: 3.3 mm posterior to Bregma, 2.4 mm lateral from midline, and 8.5 mm ventral from skull, the blade was extended 2.0 mm toward midline, raised 2.5 mm dorsally, retracted and extended again, and then returned 2.5 mm ventrally. The wire blade was retracted and the knife withdrawn. Next, a 22-gauge metal guide cannula was permanently fixed into place supranigrally at 5.0 mm posterior to Bregma, 2.0 mm lateral to midline, and 6.8 mm ventral to skull. […]
Immunopositive cells were counted in the central SNc Counts were made ventral and lateral to the lemniscus medialis, including both the pars compacta and pars reticulata, but excluding the ventral tegmental area in the ventromedial midbrain and the retrorubral field in the caudolateral midbrain. […] To reveal percent survival, percent changes were calculated by dividing the ipsilateral value by contralateral value.

Substance: Gly-Pro-Glu [GPE]
- number of TH immunopositive dopaminergic neurons [1]: increased
- loss of TH immunopositive neurons in the SNc ([2]; compared to the control group, 6-OHDA lesion): prevented the loss
- density of TH immunostaining in cytoplasm and processes of neurons ([2]; ipsilateral SNc, GPE intraventricularly 2 hours after 6-OHDA, FIG. 4): restored
- neuronal survival (TH immunopositive neurons, R/L ratio) ([2]; most caudal level of SNc, GPE 3 μg/15 μl into right lateral ventricle 2 hours after 6-OHDA, 2 weeks, mean±SEM): 60±13.0%
- restoration in TH immunoreactivity (density of TH immunostaining, R/L ratio) ([2]; most caudal level of SNc, GPE 3 μg/15 μl into right lateral ventricle 2 hours after 6-OHDA, 2 weeks, mean±SEM, FIG. 3): 99.6±27%
- TH expression (number of TH immunopositive neurons) [3]: upregulation of TH expression
- percent cell survival of TH immunopositive neurons [4]: increased
